ChEMBL document CHEMBL1201862, “PubChem BioAssay data set” (2004)
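Five compound concentrations were applied to cells in 96-well plates for 48 hours; endpoints were derived by simple linear interpolation of the resulting dose-response curve. At the GI50, growth is halved.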 Calls of active or inactive are those of the source. No stated cut-off is given here; in the data, active = GI50 up to about 1.1 µM and inactive = higher.

What was measured:
Test in all cases: NCI anticancer screen, dose series, 48 h
A498 = system: A498
A549 = system: A549
EKVX = system: EKVX
HCC 2998 = system: HCC 2998
HCT-116 = system: HCT-116
HOP-62 = system: HOP-62
LOX IMVI = system: LOX IMVI
NCI-H226 = system: NCI-H226
NCI-H23 = system: NCI-H23
RXF 393 = system: RXF 393
SF-295 = system: SF-295
SK-MEL-5 = system: SK-MEL-5
TK-10 = system: TK-10
UACC-62 = system: UACC-62
UO-31 = system: UO-31
MDA-N = system: MDA-N
OVCAR-3 = system: OVCAR-3
T47D = system: T47D

Measured: GI50

O=C(NCC#CCO)C(F)(F)F
inactive: A498 > 100 µM | A549 > 100 µM | EKVX > 100 µM | HCC 2998 > 100 µM | HCT-116 > 100 µM | HOP-62 > 100 µM | LOX IMVI > 100 µM | NCI-H226 > 100 µM | NCI-H23 > 100 µM | RXF 393 > 100 µM | SF-295 > 10 µM | SK-MEL-5 > 100 µM | TK-10 > 100 µM | UACC-62 > 100 µM | UO-31 > 100 µM

CCC(c1ccc(OC)cc1)C1NC(=S)NC1=O (stereo not drawn)
inactive: A498 > 50 µM | A549 > 50 µM | EKVX 34.2 µM | HCC 2998 > 50 µM | HCT-116 > 50 µM | HOP-62 > 50 µM | LOX IMVI > 50 µM | MDA-N > 50 µM | NCI-H226 > 50 µM | NCI-H23 > 50 µM | OVCAR-3 > 50 µM | RXF 393 > 50 µM | SF-295 > 50 µM | SK-MEL-5 > 50 µM | T47D > 50 µM | TK-10 > 50 µM | UO-31 > 50 µM

C[C@@H](NC(=O)OC1C=CC2(CC1)C(=O)N(C)c1ccccc12)c1cccc2ccccc12 (stereo partly drawn)
inactive: A498 > 25 µM | A549 12.8 µM | EKVX 12 µM | HCC 2998 > 25 µM | HCT-116 4.56 µM | HOP-62 > 25 µM | LOX IMVI 19.7 µM | MDA-N 15.5 µM | NCI-H226 21.8 µM | NCI-H23 12.2 µM | OVCAR-3 > 25 µM | SF-295 12.7 µM | SK-MEL-5 5.32 µM | T47D 7.26 µM | TK-10 > 25 µM | UACC-62 > 25 µM | UO-31 > 25 µM

COc1ccc(C(OC(C)=O)C2C(=C(C#N)C#N)c3ccccc3C2=C(C#N)C#N)cc1 (stereo not drawn)
inactive: A498 24.1 µM | EKVX 39.4 µM | HCC 2998 22.6 µM | HCT-116 35.1 µM | HOP-62 20.8 µM | LOX IMVI 33.9 µM | MDA-N 42.1 µM | NCI-H226 38.6 µM | NCI-H23 25.9 µM | OVCAR-3 21.6 µM | RXF 393 67.9 µM | SF-295 19.9 µM | SK-MEL-5 48 µM | T47D 70 µM | TK-10 83.9 µM | UO-31 28 µM

O=C(Sc1c(-c2ccccc2)c(=O)n(-c2ccccc2)c(=S)n1-c1ccccc1)c1ccc(Cl)cc1
inactive: A498 98.9 µM | A549 > 100 µM | EKVX > 100 µM | HCC 2998 > 100 µM | HCT-116 > 100 µM | HOP-62 > 100 µM | LOX IMVI > 100 µM | MDA-N > 100 µM | NCI-H226 > 100 µM | NCI-H23 > 100 µM | OVCAR-3 > 100 µM | RXF 393 > 100 µM | SF-295 > 100 µM | T47D 71 µM | TK-10 > 100 µM | UACC-62 > 100 µM

COc1cc(Br)c(CC2C3=C(CCN2C(=O)C2CCC2)CC(=O)CC3)cc1O (stereo not drawn)
inactive: A549 61.7 µM | EKVX 30.2 µM | HCC 2998 26.7 µM | HCT-116 30.3 µM | HOP-62 44.2 µM | LOX IMVI 47.8 µM | MDA-N 19.6 µM | NCI-H226 41.9 µM | NCI-H23 18.2 µM | OVCAR-3 23.6 µM | SF-295 33.5 µM | SK-MEL-5 28.6 µM | T47D 26.2 µM | TK-10 30.4 µM | UACC-62 15.6 µM | UO-31 55.6 µM

CCCN(CCC)c1c([N+](=O)[O-])cc(C(N)=O)cc1[N+](=O)[O-]
inactive: A549 81.8 µM | EKVX 36.3 µM | HCC 2998 91 µM | HCT-116 > 100 µM | NCI-H226 > 100 µM | NCI-H23 > 100 µM | OVCAR-3 78 µM | SF-295 > 100 µM | SK-MEL-5 1.16 µM | TK-10 > 100 µM | UO-31 65.5 µM
